According to publication PMC10653881, “VirB, a key transcriptional regulator of Shigella virulence, requires a CTP ligand for its regulatory activities” (mBio, 2023):

Target: T1, VirB (VirB-His6) (Shigella flexneri, UniProt P0A247)
T1 construct: VirB with His6 tag, purified by Monserate Biotechnology Group by an earlier protocol; ParB superfamily protein encoded on the large virulence plasmid pINV; homodimer on DNA
Test: isothermal titration calorimetry
Type: binding
Conditions: 25 °C, pH 7.6, 25 mM HEPES, 100 mM NaCl, one set of sites

T1 sequence (P0A247 whole entry): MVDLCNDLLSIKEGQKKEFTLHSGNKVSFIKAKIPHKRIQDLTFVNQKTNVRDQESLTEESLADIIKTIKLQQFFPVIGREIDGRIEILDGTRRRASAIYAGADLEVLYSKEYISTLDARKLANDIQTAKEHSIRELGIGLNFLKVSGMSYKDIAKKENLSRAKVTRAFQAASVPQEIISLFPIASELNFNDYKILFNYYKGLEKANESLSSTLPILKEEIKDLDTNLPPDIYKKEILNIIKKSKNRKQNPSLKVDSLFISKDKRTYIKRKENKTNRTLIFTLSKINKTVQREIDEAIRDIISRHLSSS

SMILES | Kd (5 mM MgCl2, 45 µM VirB-His6, no DNA) [µM] | Kd (5 mM MgCl2, 90 µM VirB-His6 (not fully saturated after 13 injections), no DNA) [µM]
Nc1ccn([C@@H]2O[C@H](COP(=O)(O)OP(=O)(O)OP(=O)(O)O)[C@@H](O)[C@H]2O)c(=O)n1 [CTP] | 9.3 ± 0.4 | –
Nc1ccn([C@@H]2O[C@H](COP(=O)(O)OP(=O)(O)OP(O)(O)=S)[C@@H](O)[C@H]2O)c(=O)n1 [CTPγS] | – | 14.3 ± 0.5
